Laboratory results published in ChEMBL document CHEMBL1201862, “PubChem BioAssay data set” (2004).
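Briefly, cells in 96-well plates were exposed to five compound concentrations for 48 h, and endpoints were estimated by linear interpolation. Abbreviation: GI50, concentration required for 50% inhibition of growth.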 Activity calls are given as the source filed them. No stated cut-off is given here; in the data, active = GI50 up to about 1.1 µM and inactive = higher.

Assays:
Assay in all cases: inhibition of tumour cell growth, NCI panel, 48 h
NCI/ADR-RES = system: NCI/ADR-RES
MDA-MB-435 = system: MDA-MB-435
K562 = system: K562
A498 = system: A498
A549 = system: A549
SK-MEL-28 = system: SK-MEL-28
M14 = system: M14
OVCAR-4 = system: OVCAR-4
MDA-MB-231 = system: MDA-MB-231
SNB-75 = system: SNB-75
SN12C = system: SN12C
SK-MEL-5 = system: SK-MEL-5
OVCAR-3 = system: OVCAR-3
SF-295 = system: SF-295
NCI-H23 = system: NCI-H23
Hs-578T = system: Hs-578T
NCI-H522 = system: NCI-H522
HT-29 = system: HT-29
HCT-116 = system: HCT-116
HL-60 = system: HL-60

Measured: GI50

CN(Cc1cccc2ccsc12)/N=C\c1ccc(Cl)cc1
inactive: NCI/ADR-RES > 100 µM | MDA-MB-435 49.3 µM | K562 40.6 µM | A498 93.3 µM | A549 30.4 µM | SK-MEL-28 > 100 µM | M14 79.4 µM | OVCAR-4 46.1 µM | MDA-MB-231 > 100 µM | SNB-75 57.1 µM | SN12C > 100 µM | SK-MEL-5 15.5 µM | OVCAR-3 10.6 µM | SF-295 30.9 µM | NCI-H23 28.4 µM | Hs-578T > 100 µM | NCI-H522 51.3 µM | HT-29 26.7 µM | HCT-116 28.6 µM

COc1cc2c(cc1O)NC(=O)[C@@H]1CCCN1C2=O
inactive: NCI/ADR-RES > 100 µM | MDA-MB-435 > 100 µM | K562 > 100 µM | A498 > 100 µM | A549 > 100 µM | SK-MEL-28 > 100 µM | M14 > 100 µM | OVCAR-4 > 100 µM | MDA-MB-231 > 100 µM | SNB-75 > 100 µM | SN12C > 100 µM | SK-MEL-5 > 100 µM | OVCAR-3 > 100 µM | SF-295 > 100 µM | NCI-H23 > 100 µM | Hs-578T 24 µM | NCI-H522 > 100 µM | HT-29 > 100 µM | HCT-116 > 100 µM

CCON1CC(C(=O)OC)=C(O)C1=O
inactive: NCI/ADR-RES > 100 µM | MDA-MB-435 > 100 µM | K562 > 100 µM | A498 > 100 µM | A549 > 100 µM | SK-MEL-28 > 100 µM | M14 > 100 µM | OVCAR-4 > 100 µM | MDA-MB-231 > 100 µM | SNB-75 > 100 µM | SK-MEL-5 > 100 µM | OVCAR-3 > 100 µM | SF-295 > 100 µM | NCI-H23 > 100 µM | Hs-578T > 100 µM | NCI-H522 > 100 µM | HT-29 > 100 µM | HCT-116 > 100 µM

COc1cc2c(cc1OC)CCc1cc(OC)c(OC)cc1CC2
inactive: NCI/ADR-RES > 100 µM | MDA-MB-435 > 100 µM | K562 > 100 µM | A498 > 100 µM | A549 > 100 µM | SK-MEL-28 > 100 µM | M14 > 100 µM | OVCAR-4 > 100 µM | MDA-MB-231 > 100 µM | SNB-75 > 100 µM | SN12C > 100 µM | SK-MEL-5 > 100 µM | OVCAR-3 > 100 µM | SF-295 > 100 µM | NCI-H23 > 100 µM | Hs-578T > 100 µM | HT-29 > 100 µM | HCT-116 > 100 µM

S=C(/N=c1/sc(Nc2ccccc2)nc2sc3c(c12)CCCC3)Nc1ccccc1
inactive: HL-60 > 62.5 µM | MDA-MB-435 > 62.5 µM | K562 > 62.5 µM | A498 > 62.5 µM | SK-MEL-28 > 62.5 µM | OVCAR-4 > 62.5 µM | MDA-MB-231 > 62.5 µM | SN12C > 62.5 µM | SK-MEL-5 > 62.5 µM | OVCAR-3 > 62.5 µM | NCI-H23 > 62.5 µM | Hs-578T > 62.5 µM | NCI-H522 > 62.5 µM | HT-29 > 62.5 µM | HCT-116 > 62.5 µM

COc1c(Sc2c(SCSc3cnc4ccccc4c3Sc3cnc4ccccc4c3OC)cnc3ccccc23)cnc2ccccc12
inactive: HL-60 1.59 µM | NCI/ADR-RES 42.5 µM | MDA-MB-435 26.9 µM | A549 > 100 µM | SK-MEL-28 29 µM | M14 > 100 µM | OVCAR-4 37.2 µM | MDA-MB-231 29 µM | SNB-75 21.7 µM | SN12C > 100 µM | SK-MEL-5 24.8 µM | OVCAR-3 > 100 µM | SF-295 > 100 µM | NCI-H23 54.8 µM | Hs-578T 52.2 µM | NCI-H522 19.2 µM | HT-29 78.7 µM | HCT-116 46.5 µM

COc1cc(C)c(S(=O)(=O)N(CCCN)OCCCN)c(C)c1C
inactive: NCI/ADR-RES > 100 µM | MDA-MB-435 38.9 µM | K562 15.6 µM | A498 39.4 µM | A549 68.5 µM | SK-MEL-28 38.9 µM | M14 23.6 µM | OVCAR-4 > 100 µM | MDA-MB-231 25.5 µM | SNB-75 34.2 µM | SN12C 57 µM | SK-MEL-5 20.8 µM | OVCAR-3 61.9 µM | SF-295 31.3 µM | NCI-H23 31.1 µM | Hs-578T 23 µM | NCI-H522 22 µM | HT-29 46.5 µM | HCT-116 29.6 µM
